Where two headings read alike, the source gives them in different places.
Tests used:
[1] = biological target: T1, GRK2 (Homo sapiens, UniProt P25098); assay: GRK2 Inhibition Assay (TR-FRET, Example 7); type: biochemical
T1 construct: purchased SignalChem A14-10G
T1 sequence (P25098 1-689): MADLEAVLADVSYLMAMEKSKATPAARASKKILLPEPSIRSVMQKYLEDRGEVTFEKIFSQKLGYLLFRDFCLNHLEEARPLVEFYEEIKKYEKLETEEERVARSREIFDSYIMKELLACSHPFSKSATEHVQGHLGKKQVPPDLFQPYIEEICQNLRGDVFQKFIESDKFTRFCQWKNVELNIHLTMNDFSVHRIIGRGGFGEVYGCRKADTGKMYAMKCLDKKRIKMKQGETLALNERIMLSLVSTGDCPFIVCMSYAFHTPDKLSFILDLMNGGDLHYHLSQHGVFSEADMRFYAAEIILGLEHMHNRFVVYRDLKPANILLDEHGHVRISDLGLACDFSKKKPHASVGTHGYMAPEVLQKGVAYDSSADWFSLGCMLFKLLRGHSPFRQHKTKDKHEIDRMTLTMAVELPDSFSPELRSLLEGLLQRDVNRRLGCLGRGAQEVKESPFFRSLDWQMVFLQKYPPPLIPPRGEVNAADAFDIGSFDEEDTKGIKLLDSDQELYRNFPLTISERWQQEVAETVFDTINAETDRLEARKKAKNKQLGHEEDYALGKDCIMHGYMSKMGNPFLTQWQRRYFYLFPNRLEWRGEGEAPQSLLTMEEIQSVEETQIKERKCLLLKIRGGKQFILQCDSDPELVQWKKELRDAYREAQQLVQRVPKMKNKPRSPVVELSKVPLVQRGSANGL
Experimental: Enzyme GRK2 (1 nM final concentration) was diluted in 25 mMv HEPES, 10 mM MgCl2, 2 mM DTT, 0.01% Tween-20, and 1 mM EGTA. Then the GRK2 mixture was added into ProxiPlate-384 white plate and pre-incubated for 30 min with test compounds at room temperature. ATP (7 μM final concentration) and Ulight TopoIIα (50 nM final concentration) were added into the assay plate to initiate the reaction and the mixture was incubated at room temperature for 90 min. Then, Eu anti-TopoIIα (0.12 nM final concentration), BSA (0.01% final concentration), and EDTA (11 mMv final concentration) in LANCE assay buffer were added into each well. After 60 min incubation time at room temperature, TR-FRET signal was measured by EnVision plate reader.

[2] = tested on: PAXF1657 control empty vector cell line; assay: 7-day proliferation assay, PAXF1657 control empty vector cell line (Example 9); type: cell-based; conditions: 168 h; Cell Line: PAXF1657 empty vector (EV) cell line; 7-day; read-out: C: 7-day proliferation assay: IC50 GeoMean
Procedure, shortened: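 500 cells/well, RPMI1640 + 10% H.I. FBS, adhered overnight at 37° C. Compound 10-pt dilution, 30 μM-0.0002 μM final, 0.3% DMSO. 3 d, media + compound replaced, further 4 d. Viability by CellTiter-Glo; untreated plates read at time of dosing.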

[3] = Enzyme Assay B, TR-FRET (Example 7), read-out: B: Enzymatic GRK2: IC50 (nM) (Example 7)
[4] = TR-FRET GRK2 enzyme assay, read-out: B: Enzymatic GRK2: IC50 (nM) (Example 7)

Compound: COc1cccc(OC)c1CNC(=O)c1cccc(NCc2nnc(-c3ccncc3)n2CCO)c1
- IC50 [1, 3]: 23 nM
- IC50 [2]: > 30 µM

Compound: COc1ccc(CNC(=O)c2cccc(NCc3nnc(-c4ccncc4)[nH]3)c2)c(F)c1
- IC50 [1, 3]: 15 nM
- IC50 [2]: 18.8 µM

Compound: O=C(NCc1cccc(OS(=O)(=O)F)c1)c1cccc(NCc2nnc(-c3ccncc3)[nH]2)c1
- IC50 [1]: 26 nM
- IC50 [2]: > 30 µM

Compound: O=C(NCc1cccc2c1OCC2)c1cccc(NCc2nnc(-c3ccncc3)n2CCO)c1
- IC50 [1, 3]: 6.3 nM
- IC50 [2]: 6.08 µM

Compound: O=C(NCc1cccc(F)c1)c1cccc(NCc2nnc(-c3ccncc3)[nH]2)c1
- IC50 [1, 3]: 6.1 nM
- IC50 [2]: 14.5 µM

Compound: Cn1c(CNc2cccc(C(=O)N[C@H](C#N)c3ccccc3F)c2)nnc1-c1ccncn1
- IC50 [1, 4]: 6.8 nM
- IC50 [2]: 0.0826 µM

Compound: O=C(NCCc1ccccc1OS(=O)(=O)F)c1cccc(NCc2nnc(-c3ccncc3)[nH]2)c1
- IC50 [1]: 73 nM
- IC50 [2]: 13.1 µM

Compound: O=C(N[C@H]1CCOc2ccccc21)c1cccc(NCc2nnc3n2CCOc2cnccc2-3)c1
- IC50 [1, 3]: 2.6 nM
- IC50 [2]: > 30 µM

Compound: O=C(NCc1cccc(F)c1)c1cccc(NCc2nnc(-c3ccncc3)n2CCO)c1
- IC50 [1, 3]: 9.2 nM
- IC50 [2]: > 30 µM

Compound: Cn1c(CNc2cc(C(=O)NCc3cnc4ccccn34)ccn2)nnc1-c1ccncn1
- IC50 [1, 3]: 7.9 nM
- IC50 [2]: 2.75 µM

Compound: CCCn1c(CNc2cccc(C(=O)NCc3ccccc3OCC)c2)nnc1-c1ccncn1
- IC50 [1, 3]: 8.2 nM
- IC50 [2]: > 30 µM

Compound: O=C(NCc1cccc2c1OCC2)c1cccc(NCc2nnc(-c3ccncn3)n2CCCO)c1
- IC50 [1, 3]: 4.2 nM
- IC50 [2]: 14.5 µM

Compound: Cn1c(CNc2cccc(C(=O)N[C@H]3CCOc4ccc(Br)cc43)c2)nnc1-c1ccncn1
- IC50 [1, 3]: 2.6 nM
- IC50 [2]: 0.0426 µM

Compound: Cc1cccc([C@H](CO)NC(=O)c2ccnc(NCc3nnc(-c4ccncn4)n3C)c2)c1
- IC50 [1, 3]: 16 nM
- IC50 [2]: > 30 µM

Compound: COc1cccc(OC)c1CNC(=O)c1cccc(NCc2nnc(-c3ccncc3)[nH]2)c1
- IC50 [1, 3]: 1.4 nM
- IC50 [2]: 0.981 µM

Compound: Cn1c(CNc2cccc(C(=O)N[C@@H]3CCOc4ccc(F)cc43)c2)nnc1-c1ccncn1
- IC50 [1, 3]: 2 nM
- IC50 [2]: 0.0962 µM

Compound: CCCn1c(CNc2cccc(C(=O)NCc3cccc(F)c3)c2)nnc1-c1ccncn1
- IC50 [1, 3]: 5.3 nM
- IC50 [2]: 19.2 µM

Compound: CCCn1c(CNc2cccc(C(=O)N[C@H]3CCOc4ccccc43)c2)nnc1-c1ccncn1
- IC50 [1, 3]: 2.3 nM
- IC50 [2]: > 30 µM

Compound: CCCn1c(CNc2cccc(C(=O)NCc3c(OC)cccc3OC)c2)nnc1-c1ccncn1
- IC50 [1, 3]: 3.1 nM
- IC50 [2]: > 30 µM

Compound: O=C(NCc1cccc(OS(=O)(=O)F)c1)c1cccc(NCc2nnc(-c3ccncc3)n2CCCO)c1
- IC50 [1]: 50 nM
- IC50 [2]: > 30 µM

Compound: Cc1cccc([C@@H](CO)NC(=O)c2cccc(NCc3nnc(-c4ccncn4)n3CCO)c2)c1
- IC50 [1, 3]: 1.1 nM
- IC50 [2]: 1.51 µM

Compound: C[C@H](NC(=O)c1ccnc(NCc2nnc(-c3ccncn3)n2C)c1)c1ncccc1Cl
- IC50 [1, 3]: 65 nM
- IC50 [2]: > 30 µM

Compound: O=C(NCc1cnc2ccccn12)c1cccc(NCc2nnc(-c3ccncn3)n2CCO)c1
- IC50 [1, 3]: < 0.51 nM
- IC50 [2]: 0.58 µM

Compound: Cn1c(CNc2cccc(C(=O)N[C@@H]3CCOc4cc(Br)ccc43)c2)nnc1-c1ccncn1
- IC50 [1, 3]: 7 nM
- IC50 [2]: > 30 µM

Compound: CCCn1c(CNc2cccc(C(=O)NCc3cccc4c3OCC4)c2)nnc1-c1ccncn1
- IC50 [1, 3]: 2 nM
- IC50 [2]: > 30 µM

Compound: CCCn1c(CNc2cccc(C(=O)NCc3ccccc3C(F)(F)F)n2)nnc1-c1ccncn1
- IC50 [1, 3]: 200 nM
- IC50 [2]: > 10 µM

Compound: COc1ncccc1CNC(=O)c1cccc(NCc2nnc3n2CCOc2cnccc2-3)c1
- IC50 [1, 3]: 7.5 nM
- IC50 [2]: > 30 µM

Compound: COc1ncccc1CNC(=O)c1cccc(NCc2nnc(-c3ccncc3)n2CCO)c1
- IC50 [1, 3]: 20 nM
- IC50 [2]: 0.256 µM

Compound: CCc1cnccc1CNC(=O)c1cccc(NCc2nnc(-c3ccncn3)n2CCCNC)c1
- IC50 [1, 3]: 94 nM
- IC50 [2]: > 30 µM

Compound: Cc1ccc2c(c1)[C@H](NC(=O)c1cccc(NCc3nnc(-c4ccncn4)n3C)c1)CC(C)(C)O2
- IC50 [1, 3]: 48 nM
- IC50 [2]: > 30 µM

Compound: O=C(NCc1c(F)cccc1F)c1ccnc(NCc2nnc(-c3ccncc3)[nH]2)c1
- IC50 [1, 3]: 34 nM
- IC50 [2]: > 30 µM

Compound: Cn1c(CNc2cccc(C(=O)N[C@H]3CCOc4ccc(F)cc43)c2)nnc1-c1ccncn1
- IC50 [1, 3]: 24 nM
- IC50 [2]: > 30 µM

Compound: CCCn1c(CNc2cccc(C(=O)NCc3cccnc3OC)c2)nnc1-c1ccncn1
- IC50 [1, 3]: 3.8 nM
- IC50 [2]: > 30 µM

Compound: O=C(NCc1cccnc1C(F)(F)F)c1cccc(NCc2nnc(-c3ccncn3)n2CCO)c1
- IC50 [1, 3]: 0.98 nM
- IC50 [2]: > 30 µM

Compound: Cn1c(CNc2cc(C(=O)N[C@@H]3CCOc4c(Cl)cccc43)ccn2)nnc1-c1ccncn1
- IC50 [1, 3]: 20 nM
- IC50 [2]: 2.07 µM

Compound: CCCn1c(CNc2cncc(C(=O)NCc3ccccc3C(F)(F)F)c2)nnc1-c1ccncn1
- IC50 [1, 3]: 30 nM
- IC50 [2]: > 30 µM

Compound: Cn1c(CNc2cccc(C(=O)N[C@H](C#N)c3ccccc3C(F)(F)F)c2)nnc1-c1ccncn1
- IC50 [1, 4]: 3.5 nM
- IC50 [2]: 0.0544 µM

Compound: Cn1c(CNc2cccc(C(=O)N[C@H]3CCOc4cc(Br)ccc43)c2)nnc1-c1ccncn1
- IC50 [1, 3]: 11 nM
- IC50 [2]: > 30 µM

Compound: COc1ccc(CNC(=O)c2cccc(NCc3nnc4n3CCOc3cnccc3-4)c2)c(F)c1
- IC50 [1, 3]: 1.6 nM
- IC50 [2]: > 30 µM

Compound: Cc1cccc2ncc(CNC(=O)c3cccc(NCc4nnc(-c5ccncn5)n4CCO)c3)n12
- IC50 [1, 3]: 1 nM
- IC50 [2]: 3.08 µM

Compound: CCCn1c(CNc2cccc(C(=O)NCc3cccnc3C(F)(F)F)c2)nnc1-c1ccncn1
- IC50 [1, 3]: 2.6 nM
- IC50 [2]: 0.667 µM

Compound: Cn1c(CNc2cccc(C(=O)N[C@@H]3CCOc4c3cccc4C(F)(F)F)c2)nnc1-c1ccncn1
- IC50 [1, 3]: 3.8 nM
- IC50 [2]: > 0.972 µM

Compound: Cn1c(CNc2cc(C(=O)N[C@H]3CCOc4c(Cl)cccc43)ccn2)nnc1-c1ccncn1
- IC50 [1, 3]: 63 nM
- IC50 [2]: > 30 µM

Compound: CCOc1ccccc1CNC(=O)c1cccc(NCc2nnc3n2CCOc2cnccc2-3)c1
- IC50 [1, 3]: 9.1 nM
- IC50 [2]: 2.32 µM

Compound: O=C(N[C@H]1CCOc2ccccc21)c1cccc(NCc2nnc(-c3ccncc3)[nH]2)c1
- IC50 [1, 3]: 2.1 nM
- IC50 [2]: > 1.76 µM

Compound: [2H]C([2H])(Nc1cccc(C(=O)N[C@H]2CCOc3ccccc32)c1)c1nnc(-c2ccccn2)n1C
- IC50 [1, 4]: 8.3 nM
- IC50 [2]: 2.65 µM

Compound: COc1ncccc1CNC(=O)c1cccc(NCc2nnc(-c3ccncc3)n2C)c1
- IC50 [1, 3]: 15 nM
- IC50 [2]: 0.81 µM

Compound: Cn1c(CNc2cccc(C(=O)N[C@@H]3CCOc4c3ccc(F)c4F)c2)nnc1-c1ccncn1
- IC50 [1, 3]: 3.3 nM
- IC50 [2]: 0.178 µM

Compound: O=C(NCc1ccc(OS(=O)(=O)F)cc1)c1cccc(NCc2nnc(-c3ccncc3)[nH]2)c1
- IC50 [1]: 20 nM
- IC50 [2]: > 30 µM

Compound: CCc1cnccc1CNC(=O)c1cccc(NCc2nnc(-c3ccncc3Cl)n2C)c1
- IC50 [1, 3]: 79 nM
- IC50 [2]: > 30 µM

Compound: Cn1c(CNc2cccc(C(=O)N[C@@H]3CCOc4ccc(Cl)cc43)c2)nnc1-c1ccncn1
- IC50 [1, 3]: 2.9 nM
- IC50 [2]: 0.0339 µM

Compound: O=C(NCc1cccnc1C(F)(F)F)c1cccc(NCc2nnc(-c3ccncn3)n2CCCO)c1
- IC50 [1, 3]: 5.8 nM
- IC50 [2]: > 30 µM

Compound: Cc1cc2c(cc1CNC(=O)c1cccc(NCc3nnc(-c4ccncn4)n3CCO)c1)OCCO2
- IC50 [1, 3]: 1.4 nM
- IC50 [2]: > 30 µM

Compound: Cc1ccc2c(c1)[C@@H](NC(=O)c1cccc(NCc3nnc(-c4ccncn4)n3C)c1)CCO2
- IC50 [1, 3]: 210 nM
- IC50 [2]: > 30 µM

Compound: O=C(NCc1ccccc1OS(=O)(=O)F)c1cccc(NCc2nnc(-c3ccncc3)n2CCCO)c1
- IC50 [1]: 17 nM
- IC50 [2]: > 30 µM

Compound: O=C(N[C@H]1CCOc2ccccc21)c1cccc(NCc2nnc(-c3ccncc3)n2CCO)c1
- IC50 [1, 3]: 8.2 nM
- IC50 [2]: 4.58 µM

Compound: C[C@@H](NC(=O)c1ccnc(NCc2nnc(-c3ccncn3)n2C)c1)c1ncccc1Cl
- IC50 [1, 3]: 55 nM
- IC50 [2]: > 30 µM

Compound: O=C(N[C@@H]1CCOc2c(Cl)cccc21)c1cccc(NCc2nnc(-c3ccncn3)n2CCO)c1
- IC50 [1, 3]: 4.6 nM
- IC50 [2]: 0.123 µM

Compound: CCc1cnccc1CNC(=O)c1ccnc(NCc2nnc(-c3ccncn3)n2C)c1
- IC50 [1, 3]: 15 nM

Compound: CCc1cnccc1CNC(=O)c1cccc(NCc2nnc(-c3ccncn3)n2[C@@H]2CCC[C@@H](NC)C2)c1
- IC50 [1, 4]: 1000 nM

Compound: O=C(NC1(c2ccccc2)CCOCC1)c1cccc(NCc2nnc(-c3ccncn3)n2CCO)c1
- IC50 [1, 3]: 6.3 nM

Source: patent US20230009608A1, “GRK2 INHIBITORS AND USES THEREOF” (Cygnal Therapeutics, Inc., priority 2020, published 2023)
